In brackets after ≈: the same amount, converted by molar mass.

One data set has as its target T1, human mGlu5a receptor (Homo sapiens, UniProt P41594).
T1 construct: expressed in transfected cells; host or cells: HEK-293 (monoclonal, stably transfected)
Put plainly: Intracellular Ca2+ mobilization assay (mGlu5 PAM). Type of data set: cell-based. The following applies: HEK-293 cells expressing human mGlu5a; L-glutamate at EC20. The procedure: A monoclonal HEK-293 cell line stably transfected with a cDNA encoding for the human mGlu5a receptor was generated; for the work with mGlu5 Positive Allosteric Modulators (PAMs), a cell line with low receptor expression levels and low constitutive receptor activity was selected to allow the differentiation of agonistic versus PAM activity. Cells were cultured according to standard protocols (Freshney, 2000) in Dulbecco's Modified Eagle Medium with high glucose supplemented with 1 mM glutamine, 10% (vol/vol) heat-inactivated bovine calf serum, Penicillin/Streptomycin, 50 μg/ml hygromycin and 15 μg/ml blasticidin (all cell culture reagents and antibiotics from Invitrogen, Basel, Switzerland).
About 24 hrs before an experiment, 5×10^4 cells/well were seeded in poly-D-lysine coated, black/clear-bottomed 96-well plates. The cells were loaded with 2.5 μM Fluo-4AM in loading buffer (1×HBSS, 20 mM HEPES) for 1 hr at 37° C. and washed five times with loading buffer. The cells were transferred into a Functional Drug Screening System 7000 (Hamamatsu, Paris, France), and 11 half logarithmic serial dilutions of test compound at 37° C. were added and the cells were incubated for 10-30 min. with on-line recording of fluorescence. Following this pre-incubation step, the agonist L-glutamate was added to the cells at a concentration corresponding to EC20 (typically around 80 μM) with on-line recording of fluorescence; in order to account for day-to-day variations in the responsiveness of cells, the EC20 of glutamate was determined immediately ahead of each experiment by recording of a full dose-response curve of glutamate.
Responses were measured as peak increase in fluorescence minus basal (i.e. fluorescence without addition of L-glutamate), normalized to the maximal stimulatory effect obtained with saturating concentrations of L-glutamate. Graphs were plotted with the % maximal stimulatory using XLfit, a curve fitting program that iteratively plots the data using Levenburg Marquardt algorithm. The single site competition analysis equation used was y=A+((B−A)/(1+((x/C)D))), where y is the % maximal stimulatory effect, A is the minimum y, B is the maximum y, C is the EC50, x is the log 10 of the concentration of the competing compound and D is the slope of the curve (the Hill Coefficient). From these curves the EC50 (concentration at which half maximal stimulation was achieved), the Hill coefficient as well as the maximal response in % of the maximal stimulatory effect obtained with saturating concentrations of L-glutamate were calculated.
A depression of the signal observed after addition of the EC20 concentration of L-glutamate was indicative of an inhibitory activity of the test compound.
For orientation: Calcium assays in cells follow changes in intracellular calcium, usually with a dye or a luminescent sensor.

A short description of data set [1]: Spontaneous Glutathione (GSH) Addition Assay. Also on record: key: Samples for which the mass of a covalent adduct was clearly detected (M+307) are indicated as FLAG (positive); Compounds for which no adduct was detected are designated NO FLAG (negative). The following applies: 10 μM test substance, 5 mM GSH, pH 7.4 phosphate buffer, 24 hours, room temperature; adduct by MS. Here is the method: 10 μM of test substance dissolved in pH 7.4 phosphate buffer was incubated with 5 mM GSH (glutathione) for 24 hours at room temperature. The samples were then analyzed using a mass spectrometer to determine whether adducts between glutathione and the drug had been formed. Samples for which the mass of a covalent adduct was clearly detected (M+307) are indicated as FLAG (positive). Compounds for which no adduct was detected are designated NO FLAG (negative).

Data set [2] in a line: Lyophilisation Solubility Assay (LYSA). It counts as physicochemical. The following applies: aqueous buffer, thermodynamic from solid, 0.05 M phosphate buffer pH 6.5. Here is the method:
The procedure of this automatic high throughput assay can be separated into two steps. First, DMSO stock solutions of test compounds are diluted in order to prepare four point calibration curves. The peak area at an optimal wavelength for each test compound is determined automatically by Ultra Fast Liquid Chromatography. The extraction of peak areas and retention times from the raw data is performed automatically. Using four concentrations and the related peak areas, slope and intercept of the calibration line is calculated. The correlation coefficient of the obtained regression line should be greater than 0.99. In the second phase, the sample solutions are prepared in duplicate from the DMSO stock solutions. The DMSO was removed using an evaporator. After evaporation of the DMSO, the solid drugs were solved in 0.05 M phosphate buffer (pH 6.5), stirred for one hour and afterwards shaken for two hours. After standing overnight (about 20 hours), the solutions are filtered using a microtiter filter plate. The filtrate and its 1/10 dilutions are then analyzed automatically by High Performance Liquid Chromatography (HPLC). The peak areas and retention times of the samples were extracted at the same wavelength used for the calibration.
The solubility is calculated using the following equation: S=(A−b)/a(×10 for the sample diluted 1/10)
Where S is the solubility in μg/mL; A is the peak area of the sample; a is the slope and b is the intercept of the calibration curve.

Data set [3] in a line: Solubility by 24 h equilibration in phosphate buffer, manual conventional HPLC (reference compound 106). It counts as physicochemical. The following applies: aqueous buffer, thermodynamic from solid, equilibrated 24 h in 0.05 M phosphate buffer pH 6.5. Here is the method:
In the case of reference compound 106, the compound was equilibrated for 24 h in 0.05 M phosphate buffer (pH 6.5) using a procedure identical to that performed with the LYSA assay. The amount of solute present was then directly determined using manual conventional HPLC analytics.

T1 sequence (P41594 21-1180 isoform P41594-2 limits assumed): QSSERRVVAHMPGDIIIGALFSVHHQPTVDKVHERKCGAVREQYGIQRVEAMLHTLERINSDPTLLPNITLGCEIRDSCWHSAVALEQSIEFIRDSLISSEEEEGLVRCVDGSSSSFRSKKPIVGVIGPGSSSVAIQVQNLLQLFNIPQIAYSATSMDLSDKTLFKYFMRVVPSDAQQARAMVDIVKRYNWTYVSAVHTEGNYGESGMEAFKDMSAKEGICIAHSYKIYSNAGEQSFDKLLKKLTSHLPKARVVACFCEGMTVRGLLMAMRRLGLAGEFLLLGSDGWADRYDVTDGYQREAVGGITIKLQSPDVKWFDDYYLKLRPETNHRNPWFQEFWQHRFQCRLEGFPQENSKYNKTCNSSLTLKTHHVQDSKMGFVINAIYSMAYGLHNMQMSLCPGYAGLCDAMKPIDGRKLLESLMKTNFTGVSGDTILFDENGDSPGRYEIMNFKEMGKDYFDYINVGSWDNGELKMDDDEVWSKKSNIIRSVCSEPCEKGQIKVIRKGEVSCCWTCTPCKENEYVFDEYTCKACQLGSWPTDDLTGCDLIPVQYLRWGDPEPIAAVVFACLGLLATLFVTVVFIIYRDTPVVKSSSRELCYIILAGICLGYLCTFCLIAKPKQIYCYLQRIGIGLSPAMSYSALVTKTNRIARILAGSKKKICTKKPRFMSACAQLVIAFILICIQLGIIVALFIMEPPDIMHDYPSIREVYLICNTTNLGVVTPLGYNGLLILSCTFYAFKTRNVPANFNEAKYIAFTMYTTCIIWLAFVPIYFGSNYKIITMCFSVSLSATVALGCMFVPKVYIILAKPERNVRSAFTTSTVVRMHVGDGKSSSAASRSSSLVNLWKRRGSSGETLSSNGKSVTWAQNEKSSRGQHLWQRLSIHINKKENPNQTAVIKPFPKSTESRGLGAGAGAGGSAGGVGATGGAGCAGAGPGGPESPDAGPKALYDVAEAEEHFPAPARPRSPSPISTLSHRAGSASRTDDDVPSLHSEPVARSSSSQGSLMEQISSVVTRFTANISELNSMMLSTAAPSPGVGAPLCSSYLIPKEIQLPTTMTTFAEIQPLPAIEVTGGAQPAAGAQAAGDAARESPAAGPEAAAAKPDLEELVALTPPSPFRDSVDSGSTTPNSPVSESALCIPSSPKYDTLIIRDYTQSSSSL

Broadly, the EC50 is the concentration at which the effect is half-maximal. Usually solubility stands for the concentration that dissolves in the medium under given conditions. The compound `CN1C(=O)N(c2ccc(C#Cc3ccccc3)nn2)[C@@H]2CCC[C@@H]21` [Ref. 1 Ex. 170, reference compound] registered an EC50 at human mGlu5a receptor of 8.1 nM. Further, in data set [1], the GSH assay entry is on record as “FLAG”. The same compound gave a solubility in data set [2] of 2 µg/mL (≈ 6.28 µM).

For the compound `CCN1C(=O)N(c2ncc(C#Cc3ccc(F)cc3)cn2)[C@@H]2CCC[C@@H]21` [Example 3], the EC50 at human mGlu5a receptor came out at 11.5 nM. Also, the GSH assay entry in data set [1] is “NO FLAG”. This compound also showed a solubility in data set [2] of 4 µg/mL (≈ 11.4 µM).

In the case of `CN1C(=O)N(c2ccc(C#Cc3ccccc3)cn2)[C@@H]2CCC[C@@H]21` [Ref. 1 Ex. 106, reference compound], the midpoint of the response on human mGlu5a receptor, the EC50, lay at 8 nM. The same compound came in with a solubility at 24 h in data set [3] of 0.011 µg/mL (≈ 0.0347 µM).

Turning to `COCCN1C(=O)N(c2ncc(C#Cc3ccccc3)cn2)[C@@H]2CCC[C@@H]21` [Example 5, (−)-(3aR,6aS)-1-(2-Methoxy-ethyl)-3-(5-phenylethynyl-pyrimidin-2-yl)-hexahydro-cyclopentaimidazol-2-one], on human mGlu5a receptor, the EC50 amounted to 12.5 nM. Besides, the GSH assay entry in data set [1] is “NO FLAG”. This compound also had a solubility in data set [2] of 171 µg/mL (≈ 472 µM).

Compound `COCCCN1C(=O)N(c2ncc(C#Cc3ccccc3)cn2)[C@@H]2CCC[C@@H]21` [Example 9, (−)-(3aR,6aS)-1-(3-Methoxy-propyl)-3-(5-phenylethynyl-pyrimidin-2-yl)-hexahydro-cyclopentaimidazol-2-one] registered an EC50 at human mGlu5a receptor of 30.9 nM. Further, in data set [1], the GSH assay entry is given as “NO FLAG”. Besides, the solubility in data set [2] amounted to 153 µg/mL (≈ 406 µM).

In turn, `COCCN1C(=O)N(c2ncc(C#Cc3ccc(F)cc3)cn2)[C@@H]2CCC[C@@H]21` [Example 7] registered an EC50 on human mGlu5a receptor of 26.8 nM. The GSH assay entry in data set [1] was “NO FLAG”. In data set [2], the solubility came to 43 µg/mL (≈ 113 µM).

In the case of `CCN1C(=O)N(c2ncc(C#Cc3ccccc3)cn2)[C@@H]2CCC[C@@H]21` [Example 1, (−)-(3aR,6aS)-1-Ethyl-3-(5-phenylethynyl-pyrimidin-2-yl)-hexahydro-cyclopentaimidazol-2-one], on human mGlu5a receptor, the EC50 was 9.1 nM. For the same compound, the GSH assay entry in data set [1] is reported as “NO FLAG”. This compound had a solubility in data set [2] of 8 µg/mL (≈ 24.1 µM).

With `COCCCN1C(=O)N(c2ncc(C#Cc3ccc(F)cc3)cn2)[C@@H]2CCC[C@@H]21` [Example 11], the EC50 on human mGlu5a receptor was determined as 35 nM. Further, the GSH assay result in data set [1] was “NO FLAG”. In data set [2], this compound had a solubility of 56 µg/mL (≈ 142 µM).

`CCN1C(=O)N(c2ncc(C#Cc3cccc(F)c3)cn2)[C@@H]2CCC[C@@H]21` [Example 2] yielded an EC50 at human mGlu5a receptor of 10.6 nM. Besides, in data set [1], the GSH assay result is reported as “NO FLAG”. In data set [2], the solubility was determined as 7 µg/mL (≈ 20 µM).

The compound `CCN1C(=O)N(c2ncc(C#Cc3cc(F)ccc3F)cn2)[C@@H]2CCC[C@@H]21` [Example 4] yielded a concentration giving a half-maximal response (EC50) on human mGlu5a receptor of 10 nM. Moreover, in data set [1], the GSH assay result was “NO FLAG”. In data set [2], the solubility came out at 16 µg/mL (≈ 43.4 µM).

Turning to `COCCCN1C(=O)N(c2ncc(C#Cc3cccc(F)c3)cn2)[C@@H]2CCC[C@@H]21` [Example 10], the midpoint of the response on human mGlu5a receptor, the EC50, lay at 31.6 nM. Moreover, in data set [1], the GSH assay result was “NO FLAG”. This compound yielded a solubility in data set [2] of 115 µg/mL (≈ 292 µM).

Take `COCCN1C(=O)N(c2ncc(C#Cc3cc(F)ccc3F)cn2)[C@@H]2CCC[C@@H]21` [Example 8]: the EC50 on human mGlu5a receptor amounted to 15.7 nM. The GSH assay entry in data set [1] is on record as “NO FLAG”. This compound also came in with a solubility in data set [2] of 75 µg/mL (≈ 188 µM).

`COCCN1C(=O)N(c2ncc(C#Cc3cccc(F)c3)cn2)[C@@H]2CCC[C@@H]21` [Example 6] came in with an EC50 at human mGlu5a receptor of 24.5 nM. Moreover, in data set [1], the GSH assay result was “NO FLAG”. The same compound gave a solubility in data set [2] of 114 µg/mL (≈ 300 µM).

For `CN1C(=O)N(c2ccc(C#Cc3cccc(F)c3)nn2)[C@@H]2CCC[C@@H]21` (racemic) [Ref. 1 Ex. 174, reference compound], the response on human mGlu5a receptor was half-maximal at 11.9 nM (EC50). For the same compound, the GSH assay result in data set [1] is “FLAG”. Moreover, the solubility in data set [2] is less than 1 µg/mL.

The values above are taken from patent publication US9199971B2, “Arylethynyl pyrimidines” (Hoffmann-La Roche Inc., priority 2012, dated 2015).
